Here are results for 38 compounds from PubChem BioAssay AID602296 (Broad Institute, 2012).

In this experiment the test system is NIH3T3-HGL HSF-1 response element luciferase, 48 h. Put plainly: HSF-1 reporter activators over prolonged exposure, confirmation, cell-based, mouse, luciferase, cherry-pick, dose (AID 602296).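 Note: test compounds applied by themselves with no MG132 co-treatment.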

Records with an inconclusive call do not appear. Activity calls are given as the source filed them.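 Rule for the calls: active = fitted activation curve crossing 40% at a concentration no higher than the sample's top valid tested dose; inconclusive = flat fitted curve at 30% to 70% activation, or poor curve fit; inactive = signal decrease, flat curve within 30%, or the rest.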

In the case of `O=C1NC(=S)S/C1=C/c1ccc(OC(=O)c2ccco2)cc1`, the AC40 is 22.5 µM. As for `CC1(C)CC(=O)C(C2C3=C(CC(C)(C)CC3=O)OC3=C2C(=O)CC(C)(C)C3)=C(O)C1`, the AC40 is > 26 µM (inactive). `O=C1c2cccc3cccc(c23)C(=O)N1OS(=O)(=O)c1ccccc1`: the AC40 was 16 µM.

Turning to `Cc1ccc(C(=O)CNc2ccc(Cl)cc2)cc1`, the AC40 is > 26 µM (inactive). Turning to `c1ccc2[nH]c3cc4ncnc4cc3nc2c1`, the AC40 is 5.43 µM.

Regarding `COCOc1cc(O)c(C(=O)/C=C/c2ccccc2)c(OCOC)c1`, the AC40 is 7.9 µM. Consider `O=C(NC1C(=O)NNC1c1ccccc1)c1ccccc1` (stereo not drawn), for which the AC40 was 6.88 µM.

Turning to `CC1=CC(=O)C=C(C)C1=NOC(=O)/C=C\c1ccccc1`, the AC40 was > 26 µM (inactive). In the case of `CC(C)c1ccc(C2NC(=O)c3ccccc3O2)cc1` (stereo not drawn) it was 5.17 µM. `COc1cc(SSc2cc(OC)cc([N+](=O)[O-])c2N)c(N)c([N+](=O)[O-])c1`: the AC40 was 17.9 µM. Take `Cc1ccc(S(=O)(=O)N(CC(=O)NCc2ccco2)Cc2ccc(F)cc2)cc1`: the AC40 is > 26 µM (inactive). In the case of `Nc1nnc(CSCc2ccccc2Cl)s1` it was > 26 µM (inactive); in that of `O=C1CCCN2N=C(SCC(=O)Nc3ccc(Br)cc3)SC2=N1`, > 26 µM (inactive). In the case of `C/C(CC(=O)Nc1cccc2c1CCCC2)=N\NC(=O)COc1ccccc1` it was > 26 µM (inactive).

With `Cc1cc(-c2nnc(CCC(=O)N(C)Cc3cccc4ccccc34)o2)no1`, the AC40 was 12 µM. For `Cc1cc2oc3c(c(=O)c2cc1C)C(c1ccc(C(C)C)cc1)N(CCCN1CCOCC1)C3=O` (stereo not drawn), the AC40 is > 26 µM (inactive).

Consider `CCOC(=O)CN1C=C(c2ccc3ccccc3n2)C(C[N+](=O)[O-])c2ccccc21` (stereo not drawn), for which the AC40 was 3.31 µM. Regarding `COc1cc2[nH]c(=S)n(Cc3ccco3)c(=O)c2cc1OC`, the AC40 is > 26 µM (inactive). The figure for `N#Cc1ccc(Cl)cc1NC(=O)CNCc1cccs1` is > 26 µM (inactive); for `CC1(C)CC(=O)C2=C(C1)Nc1cc3c(cc1C2c1ccc2c(c1)OCO2)OCO3` (stereo not drawn) it is 7.45 µM.

Consider `C/C(Cl)=C/Cc1c(C)[nH]c2ccc(C)cc2c1=O`, for which the AC40 was 11.2 µM. As to `Cn1c(CCC(=O)OCC(=O)Nc2ccc(Oc3ccccc3)cc2)nc(=O)c2ccccc21`, the AC40 is > 26 µM (inactive). On to `O=C(NNc1c(Cl)cccc1Cl)C1CCC1`, for which the AC40 is 23.5 µM. The figure for `CCN1C(=O)CC(N2CCN(c3ccc(C(=O)c4ccccc4)cc3)CC2)C1=O` (stereo not drawn) is 3.85 µM. Consider `COc1ccc(CCNc2ncnc3c2c(C)c(C)n3CCO)cc1OC`, for which the AC40 was > 26 µM (inactive). In the case of `COc1ccc2c(c1OC)C(=O)OC2Nc1nc(-c2ccccc2)cs1` (stereo not drawn) it was > 26 µM (inactive); in that of `O=C(O)CC1=C(Nc2ccccc2)C(=O)N(c2ccccc2)C1c1ccc(Cl)cc1` (stereo not drawn), 5.67 µM; in that of `COc1ccc(/C=C(\C#N)C(=O)Nc2cccc(C)n2)cc1`, > 26 µM (inactive). On to `CCN1CC(CN(C)Cc2nc(COc3ccccc3)no2)CC1=O` (stereo not drawn), for which the AC40 is > 26 µM (inactive). For `O=C(Nc1ccc2c(c1)C(=O)OC2)c1ccc(Cl)cc1`, the AC40 was 12.2 µM. `O=Nc1c(-c2ccccc2)[nH]n(-c2ccccc2)c1=O`: the AC40 was 20.7 µM. The figure for `Oc1cccnc1Sc1cccc(C(F)(F)F)c1` is > 26 µM (inactive). In the case of `Cc1ccc2oc(C(=O)N3CCC(O)(c4cccc(C(F)(F)F)c4)CC3)c(C)c2c1` it was 9.28 µM.

Consider `CC1(c2cccs2)CC(c2cccs2)=C(C#N)C(=O)N1` (stereo not drawn), for which the AC40 is > 26 µM (inactive). The figure for `Cc1ccc(C(=O)n2cnnc2N)cc1` is > 26 µM (inactive); for `Cc1ccc2nc(NCc3ccccc3)c(C=O)c(=O)n2c1` it is 11 µM; for `CCn1c(SCC(=O)c2ccc(Cl)cc2)nnc1-c1ccoc1C` it is 11.1 µM. With `CCCSc1nnc2n(-c3ccccc3OC)c(=O)c3c4c(sc3n12)CCC4`, the AC40 was > 26 µM (inactive).
